Experimental data: patent US7091238B1, “Thienylhydrazon with digitalis-like properties (positive inotropic effects)” (University of Maryland, priority 1999, dated 2006)
“Also recorded” adds a separate entry of the source.

Legend:
blood cells = assay: Blood cell analysis in treated mice; format: in vivo; conditions: 2 or 10 mg/kg
Method: b. Rats were weighed before and after treatment with LASSBio 204. […] Six rats were examined in each group, measurements were made after 1–15 days of treatment. […] Mice were injected with LASSBio-294 and their blood examined for cell changes. Experimental groups received 2 or 10 mg/kg of drug. […] Table 4 lists blood chemistry analysis of mice treated with LASSBio-294. Experimental groups received 2 or 10 mg/kg of drug. Controls were saline and solvent. […] The low values of glucose found could be due to an artifact of the technique, glucose being a byproduct of hemolysis. […] General Method

isolated rat heart = assay: Electrocardiogram of isolated heart (modified Langendorff perfusion); conditions: isolated rat heart without pre-load; 10, 50, 100 μM
Method: FIG. 4. Hearts of adult rats were quickly removed and placed in an aorta retrograde perfusion system (modified Langendorrff) for measurement of electrocardiogram (ECG).
(§1) a Recordings of electrocardiogram (ECG) of isolated rat heart are shown in FIG. 4 which compare control, LASSBio-294 treatment, 10 uM, 50 μM and 100 μM and post-treatment wash. […] FIG. 5 illustrates a test of change in isometric tension induced by LASSBio-294 in isolated hearts under preload. Concentration of LASSBio-294 in the bathing solution is 50 μM, which is half of the highest concentration tested in the ECG tests described in FIG. 4. Hearts were treated under a pre-load of 1 g; control was compared to LASSBio-294 and wash. […] This effect was lost in the wash out period. The pre-load tension test is considered to be an animal model of congestive heart disease. Comparing the effect of drugs with this test is predictive of therapeutic effect of treatment in human congestive heart disease. General Method
(§2) Hearts were quickly removed and placed in an aorta retrograde perfusion system for measurement of ECG. Increasing concentrations of LASSBio-294 were added to the bathing solution. The system equilibrated for 5 min. before measurement of isometric tension after each addition.

isolated hearts = assay: Isometric (twitch) tension in isolated hearts under pre-load; set-up: species or system rat; conditions: 50 μM in bathing solution; pre-load of 1 g; vs control and wash
Method: FIG. 5. Recordings of twitch tension in isolated hearts. Control (top), LASSBio-294 (middle) and wash (bottom).
as §1, §2

single muscle fiber = assay: Twitch tension in single amphibian muscle fibers; format: cell-based, frog, rana pipiens
Method: FIG. 15. Effect of 12.5 μM of compound 294 on force development in a single muscle fiber stimulated at different frequencies. The frequency of stimulation in Hz is indicated under each trace. Top panel, stimulating cycle done in Ringer without compound 294. Middle panel, stimulating cycle done 17 min after the fiber was bathed with compound 294. Bottom panel, second cycle of stimulation done 17 min after compound 294 was washed out with Ringer. Force calibration bars are 50 mg for twitches and 10 Hz simulations and 100 mg for 30, 60, and 90 Hz.
FIG. 16. Histogram showing the effect of 12.5 μM compound 294 and after washing out LASSBio-294 on fractional twitch tension (Tx/To). Tx represents the twitch tension obtained when the fiber was bathed with the solutions indicated above each column. The order of the columns are the order in which the simulating cycles were performed.
The tests in amphibians were performed in isolated single muscle cells freshly isolated from either the semitendinous or the tibialis anterior muscles of the frog, rana pipiens. The isolated muscle cells were left resting for at least half an hour in Ringer's solution. The fibers were then stimulated with single, low-voltage, electric shocks. If fibers gave brisk twitches and had no signs of membrane damage, they were used. Otherwise, they were discarded. Healthy fibers were transferred to the experimental chamber, which consisted of a 0.3 ml narrow channel where the solutions could be changed several times within five seconds. One tendon of the fiber was gripped with a small clamp and the other tendon was attached to a hook of an Ekhart;s type force transducer. The stimulating electrode consisted of platinum wires placed to each side of the fiber. The muscle fibers were stretched 1.3 times their slack length to reach approximately an average sarcomere length of 1.6 μm.
The fibers were stimulated with single electric pulses of 0.5 msec duration and variable voltage. The voltage was increased until the threshold for contraction was reached. This voltage was then increased by 50% and the experimental protocol started. To find out if LASSBio-294 has an effect on contractility, a stimulating protocol was used consisting of a series of single twitches elicited every 3 sec. followed by different frequencies of tetanic stimulation of 10 Hz, 30 Hz, and 60 Hz. The fibers rested for three minutes between each tetanic stimulation. When the whole series of stimulations were repeated, the fibers rested for 10 min. between each series of twitches and tetanic stimulations. Fatigue was induced by repetitive cycles of electrical stimulation. Each cycle consisted of a train of electric shocks delivered at 60 Hz for 0.8 sec followed by a single twitch after 2.2 sec and repeated every 4.15 sec. […]. […]

[1] = Plasma concentration kinetics; format: in vivo
Method: The plasma concentration of the drug reached a maximum at that time and afterwards tapered off to control levels within 2 hours.

[2] = tested on: Na^+/K^+-ATPase extracted from heart muscle or gastrocnemius muscle; assay: Effect on Na+/K+-ATPase; format: biochemical; conditions: enzyme from rat heart or gastrocnemius muscle
particulate PDE 3 = assay: Direct inhibition of particulate PDE 3; format: biochemical; conditions: rabbit heart

O=C(NN=Cc1cccs1)c1ccc2c(c1)OCO2 [LASSBio-294, 3,4-methylenedioxybenzoyl-2-thienylhydrazone]
blood cell values (blood cells): unaffected; also recorded: no significant change in blood cell values
hematocrit levels, leucocytes and hemoglobin (blood cells): not significantly changed
effect on ECG (isolated rat heart): No treatment had any effect on ECG; also recorded: no change
isometric tension (isolated hearts): increase in isometric tension compared to control
increase of twitch tension vs control (single muscle fiber; 12.5 μM, second stimulation cycle, 17 min in compound): ~50%
increase of twitch peak tension vs control (single muscle fiber; 12.5 μM, three minutes after bathing): approximately 25%
twitch tension potentiation vs control after wash out (single muscle fiber; 17 min in Ringer after washing away 12.5 μM compound): approximately 77%
twitch force on re-exposure (single muscle fiber; fiber exposed again to 12.5 μM after wash out): decrease in twitch force
retention time (RT); time of maximum plasma concentration [1]: 14.59 min
time for plasma concentration to taper off to control levels [1]: ≤ 2 h
effect on Na^+/K^+-ATPase [2]: did not affect
direct inhibition of particulate PDE 3 (particulate PDE 3): did not inhibit directly
